Laboratory results from ChEMBL document CHEMBL1157266, “A cyclopeptide from the Insect pathogenic fungus Cordyceps sp. BCC 1788” (J Nat Prod, 2006).
Where a SMILES comes first, the peptide text is derived from it. [ ]: non-standard residue; d: D form. NMeY = CN[C@@H](Cc1ccc(O)cc1)C(=O)O; dNMeF = CN[C@H](Cc1ccccc1)C(=O)O; Sar = CNCC(=O)O

Tests used:
[1] = test system: Plasmodium falciparum; assay: Antimalarial activity against Plasmodium falciparum K1 by [3H]hypoxanthine uptake; type: functional, organism-based
[2] = test system: Vero; assay: Cytotoxicity against african green monkey Vero cells; type: cell-based; settings: Chlorocebus sabaeus

Structure (SMILES) | IC50 [1] | IC50 [2]
C[C@H]1[C@@H](O)O[C@@H]2O[C@@]3(C)CC[C@H]4[C@H](C)CC[C@@H]1[C@@]24OO3 [ARTENIMOL] | 6 nM | –
CC[C@H](C)[C@@H]1NC(=O)[C@H](Cc2ccc(O)cc2)N(C)C(=O)[C@H](Cc2ccccc2)NC(=O)CN(C)C(=O)[C@@H]2CCCN2C(=O)[C@@H](Cc2ccccc2)N(C)C(=O)[C@H](CC(C)C)NC1=O [CORDYHEPTAPEPTIDE A] (cyclo(F[NMeY]IL[dNMeF]P[Sar])) | 5350 nM | > 56900 nM
Cc1c2ccncc2c(C)c2c1[nH]c1ccccc12 [ELLIPTECINE] | – | 2440 nM
